For orientation: mortality means the share of the test organisms that died.

Read-outs that look alike come from different tables or passages of the source.

Holding throughout (assay type): in vivo
Data set [1] deals with mustard beetle larvae (Phaedon cochleariae). The data set is described as follows: Phaedon cochleariae - spray test. To be noted: foliar, 144 h, read-out: Efficacy in % after 6d (mortality). The source says: (§1) The expected activity for a given combination of two active compounds can be calculated according to S. R. Colby, Weeds 15 (1967), 20-22 as follows: • If • X is the efficacy expressed in % mortality of the untreated control for test compound A at a concentration of m ppm respectively m g/ha, • Y is the efficacy expressed in % mortality of the untreated control for test compound B at a concentration of n ppm respectively n g/ha, • E is the efficacy expressed in % mortality of the untreated control using the mixture of A and B at m and n ppm respectively m and n g/ha,
(§2) If the observed insecticidal efficacy of the combination is higher than the one calculated as “E”, then the combination of the two compounds is more than additive, i.e., there is a synergistic effect.
To produce a suitable preparation of active compound, 1 part by weight of active compound is mixed with the stated amount of solvent and emulsifier, and the concentrate is diluted with emulsifier-containing water to the desired concentration. To produce a suitable preparation of a spore suspension the spores are diluted with emulsifier-containing water to the desired concentration.
Chinese cabbage (Brassica pekinensis) leaf-disks are sprayed with a preparation of the active ingredient of the desired concentration. Once dry, the leaf disks are infested with mustard beetle larvae (Phaedon cochleariae).
After the specified period of time, mortality in % is determined. 100% means all beetle larvae have been killed and 0% means none of the beetle larvae have been killed. The mortality values determined thus are recalculated using the Colby-formula (see sheet 1).

For data set [2], the system named is green peach aphid (Myzus persicae). Kind of data set: Myzus persicae - spray test.
From the text: as §1, §2
To produce a suitable preparation of active compound, 1 part by weight of active compound is mixed with the stated amount of solvent and emulsifier, and the concentrate is diluted with emulsifier-containing water to the desired concentration.
Chinese cabbage (Brassica pekinensis) leaf-disks infected with all instars of the green peach aphid (Myzus persicae) are sprayed with a preparation of the active ingredient of the desired concentration.
After the specified period of time, mortality in % is determined 100% means all aphids have been killed; 0% means none of the aphids have been killed. The mortality values determined thus are recalculated using the Colby-formula (see sheet 1).

For data set [3], the system named is larvae of the diamondback moth (Plutella xylostella). The data set is described as follows: Plutella xylostella - spray test. To be noted: cabbage leaves.
From the text: as §1, §2
To produce a suitable preparation of active compound, 1 part by weight of active compound is mixed with the stated amount of solvent and emulsifier, and the concentrate is diluted with emulsifier-containing water to the desired concentration Ammonium salt and/or penetration enhancer in a dosage of 1000 ppm are added to the desired concentration if necessary. […]
After the specified period of time, the mortality in % is determined. […] The mortality values determined thus are recalculated using the Colby-formula (see sheet 1).

Turning to `Cc1cc(C(F)(C(F)(F)F)C(F)(F)F)ccc1NC(=O)c1cccc(Cl)c1C(=O)NC(C)(C)C#N` [(I-5)], in data set [1] (2.5 g ai/ha, Chinese cabbage leaf disks, 6 d), the mortality at 2.5 g/ha is 0%. For the same compound, the mortality at 4 g/ha in data set [1] (4 g ai/ha, Chinese cabbage leaf disks, 6 d) is 0%. In addition, the mortality at 12 g/ha in data set [1] (12 g ai/ha, Chinese cabbage leaf disks, 6 d) was found to be 0%. Besides, in data set [2] (Myzus persicae, foliar, 144 h, 1.25 g ai/ha, Chinese cabbage leaf disks, 6 d, read-out: Efficacy in % after 6d (mortality)), the mortality at 1.25 g/ha was determined as 0%. Also, the mortality at 1.5 g/ha in data set [2] (Myzus persicae, foliar, 144 h, 1.5 g ai/ha, Chinese cabbage leaf disks, 6 d, read-out: Efficacy in % after 6d (mortality)) amounted to 0%. Further, the mortality at 15 g/ha in data set [2] (Myzus persicae, foliar, 144 h, 15 g ai/ha, Chinese cabbage leaf disks, 6 d, read-out: Efficacy in % after 6d (mortality)) is 0%.
Take `CC(c1ccc(C(F)(F)F)nc1)S(C)(=O)=NC#N` (stereo not shown) [Sulfoxaflor (II-13), Sulfoxaflor]: in data set [1] (in Brassica rapa), the mortality at 0.16 g/ha was determined as 0% and the mortality at 12 g/ha is 0%. Also, the mortality at 0.3 g/ha in data set [2] (Myzus persicae, in Brassica rapa, foliar, 144 h, read-out: Efficacy in % after 6d (mortality)) was 70%.
As for `O=C(NCCc1ncc(C(F)(F)F)cc1Cl)c1ccccc1C(F)(F)F` [Fluopyram, fluopyram], the mortality at 100 g/ha in data set [1] (in Brassica rapa) was 0%. For the same compound, the mortality at 50 ppm in data set [3] (Plutella xylostella, 72 h, 50 ppm, 3 d, read-out: Efficacy in % after 3d (mortality)) was determined as 0%.
For the compound `O=C1C=C(N(Cc2ccc(Cl)nc2)CC(F)F)CO1` [Flupyradifurone], in data set [2] (0.5 g ai/ha, Chinese cabbage leaf disks, 6 d), the “Efficacy in % after 6d (mortality)” value worked out at 0%. Besides, the “Efficacy in % after 2d (mortality)” value in data set [3] (1.25 ppm, 2 d) was found to be 0%.

The record behind these values is patent publication US9549551B2, “Active compound combinations having insecticidal properties” (priority 2013, dated 2017).
